{"source": "paper PMC8119899", "about": "“A Single Mutation in the Outer Lipid-Facing Helix of a Pentameric Ligand-Gated Ion Channel Affects Channel Function Through a Radially-Propagating Mechanism” (Frontiers in Molecular Biosciences, 2021)", "type_in_all_cases": "cell-based", "key": {"5-HT3A receptor Y441A": {"target": "T1, 5-HT3A receptor Y441A (Mus musculus, UniProt P23979, Y468A)", "T1 sequence (P23979 24-489 Y468A)": "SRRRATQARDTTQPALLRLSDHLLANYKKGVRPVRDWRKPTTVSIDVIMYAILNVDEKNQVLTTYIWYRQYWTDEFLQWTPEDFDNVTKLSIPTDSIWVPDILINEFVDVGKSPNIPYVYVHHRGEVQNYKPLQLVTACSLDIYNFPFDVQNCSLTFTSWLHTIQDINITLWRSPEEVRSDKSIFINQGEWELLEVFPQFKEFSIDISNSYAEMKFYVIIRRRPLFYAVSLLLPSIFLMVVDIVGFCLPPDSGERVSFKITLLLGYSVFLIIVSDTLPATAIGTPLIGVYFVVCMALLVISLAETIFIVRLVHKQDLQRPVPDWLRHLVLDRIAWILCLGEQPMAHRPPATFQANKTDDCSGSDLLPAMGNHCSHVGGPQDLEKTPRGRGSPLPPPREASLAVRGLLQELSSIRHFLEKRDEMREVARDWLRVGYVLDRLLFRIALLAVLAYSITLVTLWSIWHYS", "assay": "Two-electrode voltage clamp, 5-HT response, Y441A receptor in Xenopus oocytes", "design": "expressed in transfected cells; host or cells: Xenopus laevis oocytes (cRNA injection)", "details": "mean and SEM, n ≥ 3", "procedure": "(§1) The mouse 5-HT3A cDNA (Q6J1J7) in pcDNA3.1 (for HEK cell transfection) or pGEMHE (for RNA production) was modified by QuikChange site-directed mutagenesis (Agilent Technologies) to create point mutants (verified by sequencing).\nXenopus laevis oocytes from EcoCyte Biosciences (Austin Texas) were injected with 100 pg cRNA (generated with the ThermoFisher mMESSAGE mMACHINE T7 transcription kit) and left in injection media [88 mM NaCl, 2.4 mM NaHCO3, 1 mM KCl, 0.82 mM MgSO4 ·7H20, 5 mM Tris-HCl, 0.33 mM Ca(NO3)2·4H2O, 0.41 mM CaCl2·2H2O, 2.51 mM sodium pyruvate, 0.12 mg/ml theophylline, 0.05 mg/ml gentamicin, pH 7.5] at 16 °C for 24 h. […] The holding potential was −60 mV, using glass microelectrodes with a resistance of approximately 1 MΩ backfilled with 3M KCl."}, "WT 5-HT3A receptor": {"target": "T2, WT 5-HT3A receptor (Mus musculus, UniProt P23979)", "T2 construct": "expressed in transfected cells; host or cells: HEK293", "T2 sequence (P23979 24-483 isoform P23979-2 limits assumed)": "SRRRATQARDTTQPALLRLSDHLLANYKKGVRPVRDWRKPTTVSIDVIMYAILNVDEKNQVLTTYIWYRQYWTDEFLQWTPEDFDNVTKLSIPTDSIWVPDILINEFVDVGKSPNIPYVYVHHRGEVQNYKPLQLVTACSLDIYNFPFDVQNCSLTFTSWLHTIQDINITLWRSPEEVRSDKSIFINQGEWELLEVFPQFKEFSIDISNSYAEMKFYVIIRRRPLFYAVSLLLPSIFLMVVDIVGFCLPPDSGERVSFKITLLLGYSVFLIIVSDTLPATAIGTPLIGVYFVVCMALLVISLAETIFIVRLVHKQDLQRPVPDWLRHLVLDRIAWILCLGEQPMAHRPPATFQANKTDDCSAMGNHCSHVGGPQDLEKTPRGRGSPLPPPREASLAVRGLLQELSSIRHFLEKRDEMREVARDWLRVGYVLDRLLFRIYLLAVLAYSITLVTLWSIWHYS", "assay": "FlexStation membrane potential dye, 5-HT response, WT receptor in HEK293 cells", "details": "mean and SEM, n ≥ 3", "procedure": "as §1\nHuman embryonic kidney (HEK) 293 cells were maintained at 37 °C at 5% CO2 in a humidified atmosphere, in Dulbecco's Modified Eagle's Medium/Nutrient Mix F12 (1:1) (Invitrogen, Paisley, UK) with GlutaMAX^TM and 10% fetal bovine serum (GE Healthcare) (DMEM/FBS) and passaged when confluent.\n(§2) As described previously (Price and Lummis, [2005]) cells were incubated for 45 min with fluorescent membrane potential-sensitive dye (Membrane Potential Blue kit, Molecular Devices) diluted in Flex buffer (10 mM HEPES, 115 mM NaCl, 1 mM KCl, 1 mM CaCl2, 1 mM MgCl2, and 10 mM glucose, pH 7.4), and subsequently assayed at room temperature for 180 s, with readings every 2 s. […] (log of the concentration of ligand), a is the minimum response, b is the maximum response, and nH is the Hill slope."}, "5-HT3A receptor D238A": {"target": "T3, 5-HT3A receptor D238A (Mus musculus, UniProt P23979, D265A)", "T3 sequence (P23979 24-489 D265A)": "T1 sequence (P23979 24-489 Y468A) with D242A, A445Y", "assay": "FlexStation membrane potential dye, 5-HT response, D238A receptor in HEK293 cells", "design": "expressed in transfected cells; host or cells: HEK293; key to pEC50: Mutants that did not respond in the functional assay are marked as non functional (NF)", "procedure": "as §1\nHuman embryonic kidney (HEK) 293 cells were maintained at 37 °C at 5% CO2 in a humidified atmosphere, in Dulbecco's Modified Eagle's Medium/Nutrient Mix F12 (1:1) (Invitrogen, Paisley, UK) with GlutaMAX^TM and 10% fetal bovine serum (GE Healthcare) (DMEM/FBS) and passaged when confluent. Five micrograms of WT or mutant 5-HT3A DNA and 30 μl polyethyleneamine (Polysciences) incubated for 10 min in 1 mL DMEM was added to 60% confluent HEK293 cells for transfection, and cells grown for 2 days before assays.\nas §2"}}, "note": "Residue numbers refer to the chain shown, from its start.", "data": [{"molecule": "NCCc1c[nH]c2ccc(O)cc12", "note": "[5-HT]", "values": [{"measurement": "nH", "setting": "5-HT3A receptor Y441A", "value": "1.0 ± 0.1"}, {"measurement": "nH (Hill slope)", "setting": "WT 5-HT3A receptor", "value": "3.7 ± 0.3"}, {"measurement": "pEC50", "setting": "5-HT3A receptor D238A", "value": "NF"}, {"measurement": "response to application of 5-HT", "setting": "5-HT3A receptor D238A", "value": "Neither Y441A nor D238A responded"}]}]}
